Where a SMILES comes first, the peptide text is derived from it.
Key:
Experiment in all cases: microbe, parasite or virus in culture
E. coli LEC001 = assay type: cell-based, Escherichia coli; settings: E. coli LEC001 (R)
Summary of the method: (§1)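 Peptides 128→2 μg/mL, 2-fold series; inoculum ~5 × 10^5 CFU/mL from overnight culture (OD600 0.01, mixed 1:1). MHB non-cation-adjusted for bacteria, RPMI 1640 + 2% glucose for fungi. 37 °C, 20 h, OD600. MIC50/MIC90 at 50%/90% inhibition; n ≥ 3.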

E. coli NCTC 12923 = assay type: cell-based, Escherichia coli; settings: E. coli NCTC 12923 (S)
Summary of the method: as §1

P. aeruginosa NCTC 13437 = assay type: cell-based, Pseudomonas aeruginosa; settings: P. aeruginosa NCTC 13437 (R)
Summary of the method: as §1

A. baumannii ATCC 17978 = assay type: cell-based, Acinetobacter baumannii; settings: A. baumannii ATCC 17978 (S)
Summary of the method: as §1

A. baumannii AYE = assay type: cell-based, Acinetobacter baumannii; settings: A. baumannii AYE (R)
Summary of the method: as §1

K. pneumoniae M6 = assay type: cell-based, Klebsiella pneumoniae; settings: K. pneumoniae M6 (S)
Summary of the method: as §1

K. pneumoniae NCTC 13368 = assay type: cell-based, Klebsiella pneumoniae; settings: K. pneumoniae NCTC 13368 (R)
Summary of the method: as §1

[1] = tested on: S. aureus (MRSA) NCTC 13616; assay type: cell-based, Staphylococcus aureus; settings: S. aureus (MRSA) NCTC 13616 (R)
Summary of the method: as §1

S. aureus (MRSA) USA300 = assay type: cell-based, Staphylococcus aureus; settings: S. aureus (MRSA) USA300 (R)
Summary of the method: as §1

[2] = tested on: S. aureus (MSSA) ATCC 9144; assay type: cell-based, Staphylococcus aureus; settings: S. aureus (MSSA) ATCC 9144 (S)
Summary of the method: as §1

C. auris TDG 1912 = assay type: cell-based, Candida auris; settings: C. auris TDG 1912
Summary of the method: as §1

C. albicans NCPF 3281 = assay type: cell-based; settings: C. albicans NCPF 3281
Summary of the method: as §1

C. glabrata NCPF 8018 = assay type: cell-based; settings: C. glabrata NCPF 8018
Summary of the method: as §1

C. krusei NCPF 3876 = assay type: cell-based; settings: C. krusei NCPF 3876
Summary of the method: as §1

[3] = tested on: C. parapsilosis NCPF 3209; assay type: cell-based; settings: C. parapsilosis NCPF 3209
Summary of the method: as §1

C. tropicalis NCPF 8760 = assay type: cell-based; settings: C. tropicalis NCPF 8760
Summary of the method: as §1

[4] = MHB, 37 °C, 20 h, OD600, min. three biological repeats
[5] = MHB, ~5×10^5 CFU/mL, 37 °C, 20 h, OD600, min. three biological repeats
[6] = 50% growth inhibition, RPMI 1640 + 2% glucose, 37 °C, 20 h, OD600
[7] = 90% growth inhibition, RPMI 1640 + 2% glucose, 37 °C, 20 h, OD600
[8] = 50% growth inhibition, RPMI 1640 + 2% glucose, 37 °C, 20 h
[9] = 90% growth inhibition, RPMI 1640 + 2% glucose, 37 °C, 20 h

CC[C@H](C)[C@H](NC(=O)[C@@H](N)Cc1c[nH]c2ccccc12)C(=O)N[C@@H](CCCCN)C(=O)N[C@@H](CO)C(=O)N[C@H](C(=O)N[C@@H](C)C(=O)N[C@@H](CCCCN)C(=O)N[C@@H](CCCCN)C(N)=O)[C@@H](C)O [Opis8a] (H-WIKSTAKK-NH2)
> 128 µg/mL: Modal MIC (E. coli LEC001; [4]) | Modal MIC (E. coli NCTC 12923; [5]) | Modal MIC (P. aeruginosa NCTC 13437; [4]) | Modal MIC (A. baumannii ATCC 17978; [4]) | Modal MIC (A. baumannii AYE; [4]) | Modal MIC (K. pneumoniae M6; [4]) | Modal MIC (K. pneumoniae NCTC 13368; [4]) | Modal MIC [1, 4] | Modal MIC (S. aureus (MRSA) USA300; [4]) | Modal MIC [2, 4] | Modal MIC50 (C. auris TDG 1912; [6]) | Modal MIC90 (C. auris TDG 1912; [7]) | Modal MIC50 (C. albicans NCPF 3281; [8]) | Modal MIC90 (C. albicans NCPF 3281; [9]) | Modal MIC50 (C. glabrata NCPF 8018; [8]) | Modal MIC90 (C. glabrata NCPF 8018; [9]) | Modal MIC50 (C. krusei NCPF 3876; [8]) | Modal MIC90 (C. krusei NCPF 3876; [9]) | Modal MIC50 [3, 8] | Modal MIC90 [3, 9] | Modal MIC50 (C. tropicalis NCPF 8760; [8]) | Modal MIC90 (C. tropicalis NCPF 8760; [9])
> 133.2 µM: Modal MIC (E. coli LEC001; shown in µM) | Modal MIC (E. coli NCTC 12923; shown in µM) | Modal MIC (P. aeruginosa NCTC 13437; shown in µM) | Modal MIC (A. baumannii ATCC 17978; shown in µM) | Modal MIC (A. baumannii AYE; shown in µM) | Modal MIC (K. pneumoniae M6; shown in µM) | Modal MIC (K. pneumoniae NCTC 13368; shown in µM) | Modal MIC ([1]; shown in µM) | Modal MIC (S. aureus (MRSA) USA300; shown in µM) | Modal MIC ([2]; shown in µM) | Modal MIC50 (C. auris TDG 1912; shown in µM) | Modal MIC90 (C. auris TDG 1912; shown in µM) | Modal MIC50 (C. albicans NCPF 3281; shown in µM) | Modal MIC90 (C. albicans NCPF 3281; shown in µM) | Modal MIC50 (C. glabrata NCPF 8018; shown in µM) | Modal MIC90 (C. glabrata NCPF 8018; shown in µM) | Modal MIC50 (C. krusei NCPF 3876; shown in µM) | Modal MIC90 (C. krusei NCPF 3876; shown in µM) | Modal MIC50 ([3]; shown in µM) | Modal MIC90 ([3]; shown in µM) | Modal MIC50 (C. tropicalis NCPF 8760; shown in µM) | Modal MIC90 (C. tropicalis NCPF 8760; shown in µM)

CC[C@H](C)[C@H](N)C(=O)N[C@@H](CCCNC(=N)N)C(=O)NCC(=O)N[C@@H](Cc1ccc(O)cc1)C(=O)N[C@@H](CCCCN)C(=O)NCC(=O)NCC(=O)N[C@@H](Cc1ccc(O)cc1)C(=O)N[C@@H](CS)C(=O)N[C@@H](CCCCN)C(N)=O [Os(3-12)a] (H-IRGYKGGYCK-NH2)
> 112 µM: Modal MIC (E. coli LEC001; shown in µM) | Modal MIC (E. coli NCTC 12923; shown in µM) | Modal MIC (P. aeruginosa NCTC 13437; shown in µM) | Modal MIC (A. baumannii ATCC 17978; shown in µM) | Modal MIC (A. baumannii AYE; shown in µM) | Modal MIC (K. pneumoniae M6; shown in µM) | Modal MIC (K. pneumoniae NCTC 13368; shown in µM) | Modal MIC ([1]; shown in µM) | Modal MIC (S. aureus (MRSA) USA300; shown in µM) | Modal MIC ([2]; shown in µM) | Modal MIC50 (C. auris TDG 1912; shown in µM) | Modal MIC90 (C. auris TDG 1912; shown in µM) | Modal MIC50 (C. albicans NCPF 3281; shown in µM) | Modal MIC90 (C. albicans NCPF 3281; shown in µM) | Modal MIC50 (C. glabrata NCPF 8018; shown in µM) | Modal MIC90 (C. glabrata NCPF 8018; shown in µM) | Modal MIC50 (C. krusei NCPF 3876; shown in µM) | Modal MIC90 (C. krusei NCPF 3876; shown in µM) | Modal MIC50 ([3]; shown in µM) | Modal MIC90 ([3]; shown in µM) | Modal MIC50 (C. tropicalis NCPF 8760; shown in µM) | Modal MIC90 (C. tropicalis NCPF 8760; shown in µM)
> 128 µg/mL: Modal MIC (E. coli LEC001; [4]) | Modal MIC (E. coli NCTC 12923; [5]) | Modal MIC (P. aeruginosa NCTC 13437; [4]) | Modal MIC (A. baumannii ATCC 17978; [4]) | Modal MIC (A. baumannii AYE; [4]) | Modal MIC (K. pneumoniae M6; [4]) | Modal MIC (K. pneumoniae NCTC 13368; [4]) | Modal MIC [1, 4] | Modal MIC (S. aureus (MRSA) USA300; [4]) | Modal MIC [2, 4] | Modal MIC50 (C. auris TDG 1912; [6]) | Modal MIC90 (C. auris TDG 1912; [7]) | Modal MIC50 (C. albicans NCPF 3281; [8]) | Modal MIC90 (C. albicans NCPF 3281; [9]) | Modal MIC50 (C. glabrata NCPF 8018; [8]) | Modal MIC90 (C. glabrata NCPF 8018; [9]) | Modal MIC50 (C. krusei NCPF 3876; [8]) | Modal MIC90 (C. krusei NCPF 3876; [9]) | Modal MIC50 [3, 8] | Modal MIC90 [3, 9] | Modal MIC50 (C. tropicalis NCPF 8760; [8]) | Modal MIC90 (C. tropicalis NCPF 8760; [9])

C[C@H](NC(=O)CNC(=O)[C@H](CCCCN)NC(=O)[C@@H](N)CS)C(=O)N[C@@H](Cc1ccccc1)C(=O)N[C@@H](CCCCN)C(=O)N[C@@H](CCC(N)=O)C(=O)N[C@H](C(=O)N[C@@H](CS)C(=O)N[C@@H](CCCCN)C(=O)N[C@@H](CS)C(=O)N[C@@H](Cc1ccc(O)cc1)C(N)=O)[C@@H](C)O [Os(11-22)a] (H-CKGAFKQTCKCY-NH2; N-terminus assumed)
> 128 µg/mL: Modal MIC (E. coli LEC001; [4]) | Modal MIC (E. coli NCTC 12923; [5]) | Modal MIC (P. aeruginosa NCTC 13437; [4]) | Modal MIC (A. baumannii ATCC 17978; [4]) | Modal MIC (A. baumannii AYE; [4]) | Modal MIC (K. pneumoniae M6; [4]) | Modal MIC (K. pneumoniae NCTC 13368; [4]) | Modal MIC [1, 4] | Modal MIC (S. aureus (MRSA) USA300; [4]) | Modal MIC [2, 4] | Modal MIC50 (C. auris TDG 1912; [6]) | Modal MIC90 (C. auris TDG 1912; [7]) | Modal MIC50 (C. albicans NCPF 3281; [8]) | Modal MIC90 (C. albicans NCPF 3281; [9]) | Modal MIC50 (C. glabrata NCPF 8018; [8]) | Modal MIC90 (C. glabrata NCPF 8018; [9]) | Modal MIC50 (C. krusei NCPF 3876; [8]) | Modal MIC90 (C. krusei NCPF 3876; [9]) | Modal MIC50 [3, 8] | Modal MIC90 [3, 9] | Modal MIC50 (C. tropicalis NCPF 8760; [8]) | Modal MIC90 (C. tropicalis NCPF 8760; [9])
> 91.7 µM: Modal MIC (E. coli LEC001; shown in µM) | Modal MIC (E. coli NCTC 12923; shown in µM) | Modal MIC (P. aeruginosa NCTC 13437; shown in µM) | Modal MIC (A. baumannii ATCC 17978; shown in µM) | Modal MIC (A. baumannii AYE; shown in µM) | Modal MIC (K. pneumoniae M6; shown in µM) | Modal MIC (K. pneumoniae NCTC 13368; shown in µM) | Modal MIC ([1]; shown in µM) | Modal MIC (S. aureus (MRSA) USA300; shown in µM) | Modal MIC ([2]; shown in µM) | Modal MIC50 (C. auris TDG 1912; shown in µM) | Modal MIC90 (C. auris TDG 1912; shown in µM) | Modal MIC50 (C. albicans NCPF 3281; shown in µM) | Modal MIC90 (C. albicans NCPF 3281; shown in µM) | Modal MIC50 (C. glabrata NCPF 8018; shown in µM) | Modal MIC90 (C. glabrata NCPF 8018; shown in µM) | Modal MIC50 (C. krusei NCPF 3876; shown in µM) | Modal MIC90 (C. krusei NCPF 3876; shown in µM) | Modal MIC50 ([3]; shown in µM) | Modal MIC90 ([3]; shown in µM) | Modal MIC50 (C. tropicalis NCPF 8760; shown in µM) | Modal MIC90 (C. tropicalis NCPF 8760; shown in µM)

Source: PMC11191095, “QSAR Reveals Decreased Lipophilicity of Polar Residues Determines the Selectivity of Antimicrobial Peptide Activity” (ACS Omega, 2024)
